Data reported in patent US20240132457A1, “3-(2-(BENZO[D]THIAZOL-2-YL)-2-(PHENYLSUFONAMIDO)ETHYL)BENZIMIDAMIDE DERIVATIVES AND RELATED COMPOUNDS AS TMPRSS2 INHIBITORS FOR THE TREATMENT OF VIRAL INFECTIONS” (INTEGERBIO, INC., priority 2020, published 2024).
pIC50: −log10 of the molar value.

What was measured:
Format in all cases: biochemical
[1] = molecular target: T1, Human TMPRSS2-(AA 106-492) (Homo sapiens, UniProt O15393); experiment: TMPRSS2 Assay 2 (Example 42), 384-well primary assay; conditions: TMPRSS2 20 nM, substrate 40 μM, 150 min at room temperature
T1 construct: Human TMPRSS2-(AA 106-492)-; purchased CusaBio CSB-YP023924HU; host or cells: yeast
T1 sequence (O15393 106-492): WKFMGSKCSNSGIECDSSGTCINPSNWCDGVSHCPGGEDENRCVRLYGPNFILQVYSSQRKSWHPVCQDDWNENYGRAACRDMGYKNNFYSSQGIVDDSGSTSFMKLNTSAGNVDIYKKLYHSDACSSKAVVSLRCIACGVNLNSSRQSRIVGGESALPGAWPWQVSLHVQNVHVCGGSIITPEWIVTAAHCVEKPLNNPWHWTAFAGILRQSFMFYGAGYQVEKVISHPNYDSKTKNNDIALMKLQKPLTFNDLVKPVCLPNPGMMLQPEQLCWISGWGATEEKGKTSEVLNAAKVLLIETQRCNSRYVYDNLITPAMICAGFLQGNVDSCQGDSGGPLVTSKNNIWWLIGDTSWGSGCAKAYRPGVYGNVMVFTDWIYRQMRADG
Method: The concentration-response testing of compounds was in primary, readout counter as 11-point compound dilution series in 384-well assay plate format in triplicates (n=3). The compound dilutions was prepared in an intermediate plate (spot volume=150 nL), and then the assay reagents were prepared. After preparing the intermediate plates containing the assay reagents for the transfer into the assay plate using the Selma 384/25 μl pipettor, the assay reagents were transferred into the assay plate.
The resulting plate was centrifuged at g=290 for 30 s, and then the plate was incubated at room temperature for 150 minutes. 10 μl 2.5× of stop reagent (50 mM acetic acid) (Selma) was added, and then the plate was read on Safire e.
The materials, reagents, and equipment used for the assay is described in Table 3, Table 4, Table 5, and Table 6.
For the primary assay, the assay buffer (50 mM Tris-HCL, 150 mM NaCl, 0.01% Tween®20, pH8.0) was prepared using the stocks as described in Table 7.
The enzyme dilution was prepared as described in Table 8.
The final assay concentration was referred to 15 μl assay volume. Using a “greiner-dilution” as intermediate plate, the according wells were filled ([…]). The volume was adjusted using another plate type. Substrate dilution was prepared as described in Table 9.
The final assay concentration was referred to 15 μl assay volume. The DMSO concentration of the substrate working dilution was 1.2%. Using a “greiner-dilution” as intermediate plate, the according wells were filled (23 μl). Using another plate type, the volume was adjusted.
The compounds were dissolved in DM50. 150 nl of the compound were transferred into the assay plate prior to addition of the assay components (final assay volume of 15 μl).
The final concentration of the tool compound (low control) in the assay (assay volume l) was 0.8 μM. For the High control 5 μl/well […] was filled in column 6. The readout settings are described in Table 14. The readout was performed utilizing Safire^2 Microplate Reader. […]

[2] = molecular target: Cathepsin L (Homo sapiens, UniProt P07711); experiment: Non-TMPRSS2 protease panel: Cathepsin L; conditions: 10-dose, 3-fold from 10 μM
Chain of Cathepsin L (P07711 114-333): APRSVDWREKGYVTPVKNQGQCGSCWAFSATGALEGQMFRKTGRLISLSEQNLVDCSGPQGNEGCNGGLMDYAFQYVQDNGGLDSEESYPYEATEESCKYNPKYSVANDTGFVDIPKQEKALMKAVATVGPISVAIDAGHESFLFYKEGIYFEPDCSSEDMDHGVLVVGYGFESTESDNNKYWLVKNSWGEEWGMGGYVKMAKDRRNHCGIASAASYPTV
Method: (§1) Biochemical activity of compound 1 (racemic mixture, batch 1), compound 3 (racemic), compound 11, and compound 2 (enantiomer 1, batch 1) in proteases indicated in Table 21, Table 22, Table 23, and Table 24, respectively, were measured by testing the compounds in a 10-dose IC50 with a 3-fold series dilution starting at 10 μM against the proteases. The protease activities were monitored as a time-course measurement of the increase in fluorescence signal from fluorescently-labeled peptide substrate, and initial linear portion of slope (signal/min) was analyzed. The curve fits were performed when the activities at the highest concentration of compounds were less than 65%.

[3] = molecular target: T2, FVIIa (Homo sapiens, UniProt P08709); experiment: Non-TMPRSS2 protease panel: FVIIa; conditions: 10-dose, 3-fold from 10 μM
T2 construct: Elastase, FVIIa, Fxa, FXIa
T2 sequence (P08709 213-466 limits assumed): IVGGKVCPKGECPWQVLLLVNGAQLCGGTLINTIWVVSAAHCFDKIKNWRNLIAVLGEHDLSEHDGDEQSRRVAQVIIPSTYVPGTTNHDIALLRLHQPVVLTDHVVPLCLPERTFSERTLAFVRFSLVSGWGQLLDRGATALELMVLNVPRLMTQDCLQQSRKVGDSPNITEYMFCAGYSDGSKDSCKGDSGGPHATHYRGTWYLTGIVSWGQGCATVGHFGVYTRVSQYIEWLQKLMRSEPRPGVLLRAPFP
T2 sequence (P08709 61-212 partner limits assumed): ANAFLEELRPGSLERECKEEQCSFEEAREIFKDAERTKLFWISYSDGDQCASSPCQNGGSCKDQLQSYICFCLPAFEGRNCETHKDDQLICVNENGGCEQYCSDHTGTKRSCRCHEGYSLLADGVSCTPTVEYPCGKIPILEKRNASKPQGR
Method: as §1

[4] = molecular target: T3, FXIa (Homo sapiens, UniProt P03951); experiment: Non-TMPRSS2 protease panel: FXIa; conditions: 10-dose, 3-fold from 10 μM
T3 construct: FVIIa, Fxa, FXIa, Furin
T3 sequence (P03951 388-625 limits assumed): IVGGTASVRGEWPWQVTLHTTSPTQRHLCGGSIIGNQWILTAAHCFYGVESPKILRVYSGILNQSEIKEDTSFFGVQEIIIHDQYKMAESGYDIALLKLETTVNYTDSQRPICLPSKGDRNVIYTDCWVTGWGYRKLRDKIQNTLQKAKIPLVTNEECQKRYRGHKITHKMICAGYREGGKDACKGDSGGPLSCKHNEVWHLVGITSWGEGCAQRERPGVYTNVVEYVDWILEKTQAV
T3 sequence (P03951 19-387 partner limits assumed): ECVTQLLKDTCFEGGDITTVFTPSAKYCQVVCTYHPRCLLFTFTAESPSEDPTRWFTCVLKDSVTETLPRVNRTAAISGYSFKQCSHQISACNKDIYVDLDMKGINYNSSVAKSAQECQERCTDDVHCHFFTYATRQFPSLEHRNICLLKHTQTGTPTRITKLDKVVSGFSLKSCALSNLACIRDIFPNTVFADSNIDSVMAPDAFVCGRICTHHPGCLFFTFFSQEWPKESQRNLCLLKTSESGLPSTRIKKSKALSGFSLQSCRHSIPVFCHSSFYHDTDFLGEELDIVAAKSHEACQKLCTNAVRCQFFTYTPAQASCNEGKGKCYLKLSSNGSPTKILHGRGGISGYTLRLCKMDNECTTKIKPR
Method: as §1

[5] = molecular target: Furin (Homo sapiens, UniProt P09958); experiment: Non-TMPRSS2 protease panel: Furin; conditions: 10-dose, 3-fold from 10 μM
Chain of Furin (P09958 108-794): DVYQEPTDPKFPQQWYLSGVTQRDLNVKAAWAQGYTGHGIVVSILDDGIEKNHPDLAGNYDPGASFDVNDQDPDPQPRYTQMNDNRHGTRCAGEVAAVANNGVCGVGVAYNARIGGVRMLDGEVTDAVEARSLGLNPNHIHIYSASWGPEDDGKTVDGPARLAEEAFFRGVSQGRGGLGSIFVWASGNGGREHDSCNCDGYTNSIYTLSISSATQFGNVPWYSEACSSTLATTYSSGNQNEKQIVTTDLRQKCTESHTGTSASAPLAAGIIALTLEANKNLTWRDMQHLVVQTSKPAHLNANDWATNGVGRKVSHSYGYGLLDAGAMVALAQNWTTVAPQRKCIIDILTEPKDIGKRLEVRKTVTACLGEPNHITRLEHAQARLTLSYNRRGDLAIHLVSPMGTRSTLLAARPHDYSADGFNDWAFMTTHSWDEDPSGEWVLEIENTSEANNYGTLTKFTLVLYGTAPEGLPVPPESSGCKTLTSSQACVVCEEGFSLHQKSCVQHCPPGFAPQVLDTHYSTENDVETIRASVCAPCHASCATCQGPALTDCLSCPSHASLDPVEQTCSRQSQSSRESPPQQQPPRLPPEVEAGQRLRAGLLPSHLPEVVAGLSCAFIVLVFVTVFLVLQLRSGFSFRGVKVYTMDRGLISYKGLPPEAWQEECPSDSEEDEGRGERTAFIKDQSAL
Method: as §1

[6] = molecular target: MMP 14 (Homo sapiens, UniProt P50281); experiment: Non-TMPRSS2 protease panel: MMP 14; conditions: 10-dose, 3-fold from 10 μM
Method: as §1

[7] = molecular target: Plasmin (Homo sapiens, UniProt P00747); experiment: Non-TMPRSS2 protease panel: Plasmin; conditions: 10-dose, 3-fold from 10 μM
Chain of Plasmin (P00747 581-810 limits assumed, species assumed): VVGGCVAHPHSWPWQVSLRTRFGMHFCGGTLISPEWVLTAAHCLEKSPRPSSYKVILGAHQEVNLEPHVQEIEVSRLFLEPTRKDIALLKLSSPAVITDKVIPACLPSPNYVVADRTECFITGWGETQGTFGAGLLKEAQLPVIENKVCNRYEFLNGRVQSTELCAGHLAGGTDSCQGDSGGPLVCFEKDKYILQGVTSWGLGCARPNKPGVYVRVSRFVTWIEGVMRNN
Chain of Plasmin (P00747 97-580 partner limits assumed, species assumed): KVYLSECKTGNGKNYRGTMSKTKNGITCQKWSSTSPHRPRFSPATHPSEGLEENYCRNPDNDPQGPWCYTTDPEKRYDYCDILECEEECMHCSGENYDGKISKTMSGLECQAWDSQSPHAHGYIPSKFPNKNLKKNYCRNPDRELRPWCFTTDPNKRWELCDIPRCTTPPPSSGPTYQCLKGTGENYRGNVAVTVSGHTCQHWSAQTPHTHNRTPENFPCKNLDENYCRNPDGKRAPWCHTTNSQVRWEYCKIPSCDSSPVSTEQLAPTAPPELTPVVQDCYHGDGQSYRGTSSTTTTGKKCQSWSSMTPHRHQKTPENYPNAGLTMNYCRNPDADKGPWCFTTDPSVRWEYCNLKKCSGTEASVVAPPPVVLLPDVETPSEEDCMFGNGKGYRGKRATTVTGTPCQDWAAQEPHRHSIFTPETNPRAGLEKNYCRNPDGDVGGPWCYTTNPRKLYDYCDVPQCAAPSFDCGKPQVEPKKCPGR
Method: as §1

[8] = molecular target: TACE (Homo sapiens, UniProt P78536); experiment: Non-TMPRSS2 protease panel: TACE; conditions: 10-dose, 3-fold from 10 μM
Chain of TACE (P78536 215-824): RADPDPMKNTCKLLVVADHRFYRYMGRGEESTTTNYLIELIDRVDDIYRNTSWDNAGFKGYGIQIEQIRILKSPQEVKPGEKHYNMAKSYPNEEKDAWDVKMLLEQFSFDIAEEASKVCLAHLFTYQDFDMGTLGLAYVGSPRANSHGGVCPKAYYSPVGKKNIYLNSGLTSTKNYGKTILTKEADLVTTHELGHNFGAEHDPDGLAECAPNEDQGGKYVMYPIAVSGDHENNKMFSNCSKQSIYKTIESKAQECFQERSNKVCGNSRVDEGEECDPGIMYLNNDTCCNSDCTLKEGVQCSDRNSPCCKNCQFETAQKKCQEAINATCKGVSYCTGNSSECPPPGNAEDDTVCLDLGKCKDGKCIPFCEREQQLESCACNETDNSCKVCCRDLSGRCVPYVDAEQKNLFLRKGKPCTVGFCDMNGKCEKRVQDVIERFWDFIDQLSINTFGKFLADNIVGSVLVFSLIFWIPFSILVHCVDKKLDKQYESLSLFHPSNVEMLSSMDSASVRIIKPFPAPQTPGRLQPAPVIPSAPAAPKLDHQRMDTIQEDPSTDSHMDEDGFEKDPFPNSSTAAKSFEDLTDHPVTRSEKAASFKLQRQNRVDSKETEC
Method: as §1

Row | Structure (SMILES) | pIC50 [1] | pIC50 [2] | pIC50 ([3]; FVIIa) | pIC50 ([4]; FXIa) | pIC50 [5] | pIC50 [6] | pIC50 [7] | pIC50 [8] | pIC50 ([3]; Factor VIIa) | pIC50 ([4]; Factor XIa)
1 | N=C(N)c1cccc(CC(NS(=O)(=O)c2ccccc2)c2nc3ccccc3s2)c1 (racemic) [1 (racemic mixture, batch 1), 3-[2-Benzenesulfonamido-2-(1,3-benzothiazol-2-yl)ethyl]benzene-1-carboximidamide] | > 4.52 | < 5.00 | < 5.00 | < 5.00 | < 5.00 | < 5.00 | < 5.00 | < 5.00 | – | –
2 | N=C(N)c1cccc(CC(NS(=O)(=O)c2cccc(-c3ccc(Cl)cc3Cl)c2)c2nc3ccccc3s2)c1 (racemic) [3 (racemic), 3-[2-(1,3-Benzothiazol-2-yl)-2-{2′,4′-dichloro-[1,1′-biphenyl]-3-sulfonamido}ethyl]benzene-1-carboximidamide] | < 4.52 | < 5.00 | < 5.00 | < 5.00 | < 5.00 | > 5.00 | < 5.00 | < 5.00 | – | –
3 | N=C(N)c1cccc(C[C@H](NS(=O)(=O)c2ccccc2)c2nnco2)c1 (single isomer, unassigned) [Compound 2 (enantiomer 1, batch 1), 3-[2-Benzenesulfonamido-2-(1,3,4-oxadiazol-2-yl)ethyl]benzene-1-carboximidamide] | < 4.52 | < 5.00 | < 5.00 | < 5.00 | < 5.00 | < 5.00 | < 5.00 | < 5.00 | – | –
4 | COc1ccc2nc(C(Cc3cccc(C(=N)N)c3)NS(=O)(=O)c3ccccc3)sc2c1 (stereo not shown) [Compound 11, 3-[2-Benzenesulfonamido-2-(6-methoxy-1,3-benzothiazol-2-yl)ethyl]benzene-1-carboximidamide] | – | < 5.00 | – | – | < 5.00 | < 5.00 | < 5.00 | < 5.00 | < 5.00 | < 5.00
